According to US9493461B2, “Tetracyclic heterocycle compounds and methods of use thereof for the treatment of hepatitis C” (priority 2013, dated 2016):
pIC50: −log10 of the molar value. Where two headings read alike, the source gives them in different places.

How the values were obtained:
[1] = system: HCV replicon genotype 1a; assay: HCV replicon assay, genotype 1a (cell ELISA for replicon-encoded NS3/4A); assay type: cell-based, hepatitis C virus (HCV); conditions: for IC50: Hepatitis C virus, 96 h, read-out: 1a IC50 (nM), genotype 1a replicon cells, 96 hours incubation, NS3/4A ELISA readout, % of DMSO control
In short: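 Stable G418-selected neomycin-resistant HCV replicon cells were plated with serially diluted compound without G418 and incubated 96 h. After washing and lysis, replicon RNA was measured indirectly by cell ELISA for replicon-encoded NS3/4A; IC50 from four-parameter fit relative to DMSO control.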

[2] = system: HCV replicon genotype 1b; assay: HCV replicon assay, genotype 1b (cell ELISA for replicon-encoded NS3/4A); assay type: cell-based, hepatitis C virus (HCV); conditions: for IC50: Hepatitis C virus, 96 h, read-out: 1b IC50 (nM), genotype 1b replicon cells, 96 hours incubation, NS3/4A ELISA readout, % of DMSO control
In short: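 Genotype 1b replicon cells (neomycin-selected, G418 removed for assay) incubated 96 h with compound dilution series. Replication measured by cell ELISA for replicon-encoded NS3/4A after lysis; IC50 from four-parameter fit relative to DMSO control.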

Row | SMILES | IC50 [1] | IC50 [2] | pIC50 ([1]; read-out: 1a IC50, genotype 1a replicon cells, 96 hours incubation, NS3/4A ELISA readout, % of DMSO control) | pIC50 ([2]; read-out: 1b IC50, genotype 1b replicon cells, 96 hours incubation, NS3/4A ELISA readout, % of DMSO control)
1 | CNC(=O)c1c(-c2ccc(F)cc2)oc2cc(N(C)S(C)(=O)=O)c(-c3ccc4nc(CN5CCOC(C(F)(F)F)C5)n5c6cccc(C#N)c6cc5c4n3)cc12 (centres unmarked) [Example 129] | 5.68 nM | 6.95 nM |  | 
2 | CNC(=O)c1c(-c2ccc(F)cc2)oc2cc(N(C)S(C)(=O)=O)c(-c3ccc4nc(CN5CC(C)(C#N)C5)n5c6cccc(C#N)c6cc5c4n3)cc12 [Example 130] | 1.22 nM | 1.39 nM |  | 
3 | CNC(=O)c1c(-c2ccc(F)cc2)oc2cc(N(C)S(C)(=O)=O)c(-c3ccc4nc(CN5CC(O)(C(F)(F)F)C5)n5c6cccc(C#N)c6cc5c4n3)cc12 [Example 131] | 4.09 nM | 4.23 nM |  | 
4 | CNC(=O)c1c(-c2ccc(F)cc2)oc2cc(N(C)S(C)(=O)=O)c(-c3ccc4nc(CC5CC[C@H](OC)C5)n5c6cccc(C#N)c6cc5c4n3)cc12 (some centres unmarked) [Example 132] | 2.83 nM | 3.5 nM |  | 
5 | CNC(=O)c1c(-c2ccc(F)cc2)oc2cc(N(C)S(C)(=O)=O)c(-c3ccc4nc(CC5CC[C@@H](OC)C5)n5c6cccc(C#N)c6cc5c4n3)cc12 (some centres unmarked) [Example 133] | 2.98 nM | 3.56 nM |  | 
6 | CNC(=O)c1c(-c2ccc(F)cc2)oc2cc(N(C)S(C)(=O)=O)c(-c3ccc4nc(CN5CCOCC5)n5c6cccc(C#N)c6cc5c4n3)cc12 [Example 134] | 2.6 nM | 2.02 nM |  | 
7 | CNC(=O)c1c(-c2ccc(F)cc2)oc2cc(N(C)S(C)(=O)=O)c(-c3ccc4nc(CN5CC[C@@H](F)C5)n5c6cccc(C#N)c6cc5c4n3)cc12 [Example 135] |  |  | 8.57 | 8.44
8 | CNC(=O)c1c(-c2ccc(F)cc2)oc2cc(N(C)S(C)(=O)=O)c(-c3ccc4nc(CN5CC(CC(F)(F)F)C5)n5c6cccc(C#N)c6cc5c4n3)cc12 [Example 136] | 6.6 nM | 10.6 nM |  | 
9 | CNC(=O)c1c(-c2ccc(F)cc2F)oc2cc(N(C)S(C)(=O)=O)c(-c3ccc4nc(CC5CC6(CNC(=O)C6)C5)n5c6cccc(F)c6cc5c4n3)cc12 (centres unmarked) [Example 137] | 6.67 nM | 5.04 nM |  | 
10 | CNC(=O)c1c(-c2ccc(F)cc2F)oc2cc(N(C)S(C)(=O)=O)c(-c3ccc4nc(CN5CC(C)(OC)C5)n5c6cccc(F)c6cc5c4n3)cc12 [Example 138] | 4.33 nM | 4.59 nM |  | 
11 | CNC(=O)c1c(-c2ccc(F)cc2F)oc2cc(N(C)S(C)(=O)=O)c(-c3ccc4nc(CN5CC(C)(C#N)C5)n5c6cccc(F)c6cc5c4n3)cc12 [Example 139] | 2.79 nM | 3.16 nM |  | 
12 | CNC(=O)c1c(-c2ccc(F)cc2F)oc2cc(N(C)S(C)(=O)=O)c(-c3ccc4nc(CN5CC(C)(F)C5)n5c6cccc(F)c6cc5c4n3)cc12 [Example 140] | 2.95 nM | 4.31 nM |  | 
13 | CNC(=O)c1c(-c2ccc(F)cc2F)oc2cc(N(C)S(C)(=O)=O)c(-c3ccc4nc(CN5CCC(F)(C#N)CC5)n5c6cccc(F)c6cc5c4n3)cc12 [Example 141] | 5.48 nM | 5.99 nM |  | 
14 | CNC(=O)c1c(-c2ccc(F)cc2F)oc2cc(N(C)S(C)(=O)=O)c(-c3ccc4nc(CN5CC(C)(O)C5)n5c6cccc(F)c6cc5c4n3)cc12 [Example 142] | 3.05 nM | 2.85 nM |  | 
15 | CNC(=O)c1c(-c2ccc(F)cc2F)oc2cc(N(C)S(C)(=O)=O)c(-c3ccc4nc(CN5CC(C(C)(C)O)C5)n5c6cccc(F)c6cc5c4n3)cc12 [Example 143] | 5.17 nM | 6.21 nM |  | 
16 | CNC(=O)c1c(-c2ccc(F)cc2F)oc2cc(N(C)S(C)(=O)=O)c(-c3ccc4nc(CN5CCC[C@@H]5C(F)(F)F)n5c6cccc(F)c6cc5c4n3)cc12 [Example 144] | 13.3 nM | 14.6 nM |  | 
17 | CNC(=O)c1c(-c2ccc(F)cc2F)oc2cc(N(C)S(C)(=O)=O)c(-c3ccc4nc(CN5CCC[C@H]5C(F)(F)F)n5c6cccc(F)c6cc5c4n3)cc12 [Example 145] | 20 nM | 12.2 nM |  | 
18 | CNC(=O)c1c(-c2ccc(F)cc2F)oc2cc(N(C)S(C)(=O)=O)c(-c3ccc4nc(CN5CC6CC5CO6)n5c6cccc(F)c6cc5c4n3)cc12 (centres unmarked) [Example 146] | 3.38 nM | 3.38 nM |  | 
19 | CNC(=O)c1c(-c2ccc(F)cc2F)oc2cc(N(C)S(C)(=O)=O)c(-c3ccc4nc(CN5CCN(C)CC5)n5c6cccc(F)c6cc5c4n3)cc12 [Example 147] | 3.48 nM | 3.99 nM |  | 
20 | CNC(=O)c1c(-c2ccc(F)cc2F)oc2cc(N(C)S(C)(=O)=O)c(-c3ccc4nc(CN5CCN(C(C)=O)CC5)n5c6cccc(F)c6cc5c4n3)cc12 [Example 148] | 2.52 nM | 3.17 nM |  | 
21 | CNC(=O)c1c(-c2ccc(F)cc2F)oc2cc(N(C)S(C)(=O)=O)c(-c3ccc4nc(CN5CC(S(C)(=O)=O)C5)n5c6cccc(F)c6cc5c4n3)cc12 [Example 149] | 3.38 nM | 2.49 nM |  | 
22 | CNC(=O)c1c(C2CC2)oc2cc(N(C)S(C)(=O)=O)c(-c3ccc4nc(CN5CC(F)C5)n5c6cccc(F)c6cc5c4n3)cc12 [Example 151] | 2.66 nM | 3.43 nM |  | 
